Experiment [1] deals with primary differentiated adipocytes. In words: Seahorse oxygen consumption rate in differentiated primary adipocytes. Format: cell-based, mice. Conditions: addition of etomoxir. The method, then: The cellular oxygen consumption rate (OCR) was measured using an eXF96 Extracellular Flux Analyzer and analyzed by Agilent Seahorse Wave Software (Seahorse Bioscience). Before performing the assay, 2,500 primary preadipocytes were seeded and differentiated in XF96 microplates. Once fully differentiated, the adipocyte culture medium was changed to assay medium containing 25 mM glucose, 1 mM pyruvate and 2 mM L-glutamine, and 0.5 mM carnitine without phenol red or sodium bicarbonate for 3 hours. Before taking measurements, cells were incubated in a CO2-free incubator for 15 minutes. Basal rates of respiration were measured in assay medium and followed with sequential injections of oligomycin (2 μM), FCCP (0.5 μM) and rotenone with antimycin A (each 0.5 μM). Oxygen consumption values were normalized to total protein content.

Another experiment deals with immortalized adipocytes. In words: In vitro lipolysis (FFA and glycerol release) in immortalized adipocytes. In kind it is cell-based, mice. The method, then:
Primary preadipocytes from Rala^f/f mice were immortalized by retroviral transduction of pBabe-zeo-LT-ST (SV40) and selection by Zeocin^75. Single-cell clones were selected and tested for differentiation capacity. […] To generate Rala KO cells, immortalized Rala^f/f (WT) preadipocytes were transduced with lentiviral Cre with 8 μg/mL Polybrene for 12 hours, then cultured in DMEM/F12-FBS medium. Cre recombinase efficiency was tested in preadipocytes and adipocytes. Once 95-100% confluency was reached (day 0), differentiation was induced as described above. On the day of the experiment, cells were starved in DMEM/F12 medium for 3 hours before treatments.
Fully differentiated primary adipocytes in a 24-well plate were serum-starved in lipolysis medium (2% BSA-phenol-red-free DMEM) for 3 hours. For insulin treatment, 100 nM insulin was added to cells for 30 minutes starting at 2.5 hours of starvation. After starvation, the medium was replaced with 0.5 mL fresh lipolysis medium with vehicle, 1 μM CL-316,243 (CL), 100 nM insulin or in combination. The medium was collected 1 hour after incubation at 37° C. Released FFAs and free glycerol levels were measured using 100 μL medium with a NEFA kit (WAKO) and Free Glycerol Reagent (Sigma) according to the manufacturer's protocol.

Experiment [2] deals with primary and immortalized adipocytes. The experiment in a line: TMRM live-cell imaging of mitochondrial membrane potential in adipocytes. Conditions: adipocytes treated with 1 μM CL-316,243 for indicated times. Format: cell-based, mice. An excerpt:
FIGS. 10A-10J. […] FIG. 10A: Calculation of individual OCR in differentiated primary adipocytes (n=8 biological samples). P=0.0008, P=0.0175, P=0.0042. FIG. 10B: Representative immunoblot of RalA and β-Tubulin in immortalized preadipocytes and differentiated adipocytes. (n=3 biological samples). FIG. 10C: Quantification of mean TMRM fluorescence intensity in primary adipocytes and immortalized adipocytes (n=3 independent cells). P<0.0001, P<0.0001. FIG. 10D: Time course TMRM intensity quantification in primary and immortalized adipocytes (n=4 biological samples). Adipocytes were treated with 1 μM CL-316,243 (CL) for indicated times. P=0.0015, P=0.0044 (left panel). P<0.0001, P=0.0154, P=0.0095 (right panel). FIGS. 10E and 10F: Quantification of NEFA (FIG. 10E) and free glycerol (FIG. 10F) released into medium from immortalized adipocytes (n=3 biological samples). Cells were treated with 1 μM CL, 100 nM insulin, or in combination prior to medium collection. P=0.0301, P=0.0051 (FIG. 10F). FIGS. 10G and 10H: Plasma levels of NEFA (FIG. 10G) and free glycerol (FIG. 10H) in CD-fed Rala^f/f and Rala^AKO mice (n=6). P=0.0027, P=0.0173 (FIG. 10H). Mice were i.p. injected with CL or vehicle prior to blood sampling. FIGS. 10I and 10J: Plasma levels of NEFA (FIG. 10I) and free glycerol (FIG. 10J) in CD-fed Rala^f/f (n=4) and Rala^AKO (n=5) mice. […]

Experiment [3] can be described thus: In vivo insulin-suppressed lipolysis. Particulars: single injection of insulin, fasted CD-fed control and Rala AKO mice. The method, then:
CD-fed mice were used for in vivo lipolysis. For CL-induced lipolysis, ad libitum-fed mice were i.p. injected with PBS or CL (1 mg/kg) for 60 minutes. Circulating FFAs and free glycerol levels were measured using 2 μL plasma with a NEFA kit (WAKO) and Free Glycerol Reagent (Sigma), respectively. For insulin-suppressed lipolysis, overnight-fasted mice were i.p. injected with insulin (0.5 U/kg) for 60 minutes. Circulating FFAs and free glycerol levels were measured at the indicated conditions.

Experiment [4] in a line: RalA inhibitor treatment of mice: body weight, tissue weight, blood glucose. Format: in vivo. An excerpt:
To test the effects of RalA inhibition in reducing body weight, tissue weight and blood glucose level in mice, mice were weighed before injecting with either RalA inhibitor, BQU57, or DMSO (vehicle). Post injection, mice were weighed every 2 days.

“Also recorded” adds a separate entry of the source.

Consider four compounds from patent US20250319162A1, “METHODS AND MATERIALS FOR TREATING OBESITY” (Regents of the University of California, priority 2024, published 2025).

As to `CCOC(=O)[C@@]1(CCCCCCOc2ccc(Cl)cc2)CO1` [etomoxir], in experiment [1], the “difference in maximal respiration (OCR) between KO and control adipocytes” value is reported as “blunted”.

As for `C[C@H](Cc1ccc2c(c1)OC(C(=O)[O-])(C(=O)[O-])O2)NC[C@H](O)c1cccc(Cl)c1.[Na+].[Na+]` [CL-316,243], in the experiment with immortalized adipocytes (1 μM CL, KO and WT immortalized adipocytes), the “FFA and glycerol release” value is “robustly stimulated FFA and glycerol release”. In addition, in experiment [2], the “TMRM signal (mitochondrial membrane potential)” value is listed as “TMRM signal declined quickly”.

Take “insulin: insulin used at 100 nM in cells or injected i.p. (human insulin, Sigma)”: in the experiment with immortalized adipocytes (100 nM insulin with 1 μM CL, both WT and KO cells), the “suppression of CL-induced FFA release” value was “approximately 50%”. For the same compound, the “plasma FFA levels” value in experiment [3] is recorded as “reduced FFA levels”.

`Cc1nn(C)c2c1C(c1ccc(C(F)(F)F)cc1)C(C#N)=C(N)O2` (centres unmarked) [BQU57]: in experiment [4] (mice injected with BQU57 vs DMSO vehicle, weighed every 2 days, 23 days of treatment), the body weight entry is listed as “significant weight loss; also recorded: reduced body weight”. Also, the blood glucose level result in experiment [4] (mice, BQU57 vs vehicle group) is “significant reduction in the blood glucose level”. Further, the “subcutaneous WAT (sWAT) weight” value in experiment [4] (mice, post treatment with BQU57) is “marked reduction of subcutaneous WAT (sWAT) weight”.
